Laboratory results from patent US20250280827A1, “An antifungal composition comprising natamycin and at least one insecticide” (priority 2021, published 2025).
Where two headings read alike, the source gives them in different places.

Experiments:
Fusarium graminerum = format: cell-based; conditions: 6 days after inoculation
From the text: (§1) The Colby equation (Colby, 1967. Weeds 15:20-22) calculates the expected antifungal activity (E in %) of a combination comprising more than one active ingredients:
(§2) wherein X and Y are the observed antifungal activities (in %) of the individual active ingredients x and y, respectively. If the observed antifungal activity (O in %) of the combination exceeds the expected antifungal activity (E in %) of the combination and the synergy factor O/E is thus >1.0, the combined application of the active ingredients leads to a synergistic antifungal effect.
(§3) Agar medium was prepared by mixing in a 100 ml Duran bottle 3.9 g of potato dextrose agar (PDA) from Carl-Roth (Carl-Roth GmbH+Co. KG, Karlsruhe, Germany) with 100 ml deionized water and autoclaving the Duran bottle at 120° C. for 15 minutes. After autoclaving, the solution was cooled by putting it in a 48° C. oven for about two hours. Afterward the semi-liquid PDA solution was carefully mixed with natamycin and/or insecticide dosages as specified in Table 5 showing the interaction results on petri dishes. The medium in the Duran bottle was divided over 5 petri dishes (90×15 mm), 20 ml per petri dish by using 25 ml serological pipets (ROTILABO®; Carl-Roth). Each natamycin and/or insecticide treatment was performed in fivefold.
(§4) Fungal spore suspensions were prepared by drenching a fully grown petri dish with sterile water. The fungus was scraped off and filtered through a Miracloth (pore size: 22-25 μm) (Merck KGaA, Darmstadt, Germany; catalogue number: 475855). The number of spores were counted with a hemocytometer and fungal suspension was adjusted to 10^6 spores per ml. Afterward, 5 μl of prepared spore suspension was pipetted on the center of the agar plate. The plates were incubated at 25° C. Measurement of the fungal growth was done using callipers at different time points. Assessment of the infection area was 6 days after inoculation.
(§5) The insecticide levels and the period after which the assessments were made are presented as specified for the different insecticides are presented in Table 5 below. Synergistic calculation was done using the Colby equation. Experiment was performed in 5-fold.
The experiments were performed as described in Example 3. The product KARATE ZEON® of company Syngenta containing the active ingredient lambda-cyhalothrin belonging to IRAC Group 3 was tested. Assessment of the infection area was 6 days after inoculation. Experiment was performed in 5-fold.

Sclerotinia sclerotiorum = experiment: Antifungal effect against Sclerotinia sclerotiorum infection on wounded skin of broad bean pods (rot area, Colby synergy); format: in vivo
From the text: as §1, §2
• 1) Control (without natamycin and lambda-cyhalothrin) • 2) Natamycin at a level of 15 ppm • 3) Lambda-cyhalothrin (in the product KARATE ZEON® of Syngenta) at a levels of 0.15 ppm, 0.6 ppm, 3 ppm and 15 ppm • 4) Natamycin at a level of 15 ppm combined with lambda-cyhalothrin at levels of 0.15 ppm, 0.6 ppm, 3 ppm or 15 ppm.
Used pathogen: Sclerotinia sclerotiorum.
(§6) Application: The broad bean pods were washed under tap water, and were subsequently surface sterilized by placing them in a 0.1% sodium hypochlorite solution for 5 minutes. The pods were then rinsed with tap water and dried. Transparent plastic containers were prepared by placing a piece of absorbing paper in the container and adding 25 ml of water, one container per treatment was used. The pods were cut in two, and two halve pods were incubated per box. The skin of broad bean pods was damaged with a needle, ø 2 mm and to a depth of about 3 mm into the fruit, with—depending on the size of the pod—2 to 4 wounds per half pod. In total, 6 wounds were incubated per treatment, of which 1 was used as a control. A volume of 20 microliter of a natamycin/insecticide composition, as presented herein above, was applied by pipette to each wound. The treatments were then left to air-dry. Once dried, a mycelium plug of Sclerotinia sclerotiorum was placed upside down on each wound, so that the mycelium was in direct contact with the wound. Per treatment 5 wounds were inoculated with the fungus, while the 6th and last wound was used as negative non-inoculated control. After inoculation, the containers were directly closed with a transparent plastic lid.
All pods were kept at room temperature (20° C.). Wounds of the pods were checked after 30 h of incubation.
Replicates: All treatments for the broad bean pod experiment were performed on two individual pod halves resulting in 5 wounds per treatment, while a sixth wound served as control.
The experiments were performed as described in Example 1.
The experiments were performed as described in Example 1. Assessment of the infection area was 23 h after inoculation. Experiment was performed in 5-fold.
The experiments were performed as described in Example 1. Thiamethoxam belongs to IRAC Group 4. Assessment of the infection area was 31 hours after inoculation. Experiment was performed in 5-fold.
The experiments were performed as described in Example 1. The product SPECTRE® of company (Adama) containing the active ingredient chlorfenapyr belonging to IRAC Group 13 was tested. Assessment of the infection area was 23 hours after inoculation. Experiment was performed in 5-fold.

Fusarium culmorum = experiment: Antifungal effect against Fusarium culmorum on PDA petri dishes (fungal growth area, Colby synergy); format: cell-based
From the text: as §1, §2, §3, §4, §5
The experiments were performed as described in Example 3. Assessment of the infection area was 6 days after inoculation. Experiment was performed in 5-fold.
The experiments were performed as described in Example 3. The product KARATE ZEON® of company Syngenta containing the active ingredient lambda-cyhalothrin belonging to IRAC Group 3 was tested. Assessment of the infection area was 3 days after inoculation. Experiment was performed in 5-fold.

Botrytis cinerea = experiment: Antifungal effect against Botrytis cinerea infection on wounded peel of banana fruits (Colby synergy); format: in vivo; conditions: 5 days after inoculation
From the text: as §2, §6
The infection area was measured 5 days after inoculation.
A few changes were made for the banana experiments: 5 wounds per banana were made, on each wound 40 microliter of treatments was pipetted. The treatments were then left to air-dry. Once dried, 2 microliter of a freshly prepared inoculum was pipetted on four of the wounds. The inoculum consists of […] potato dextrose broth (PDB) medium containing Botrytis cinerea spores at a concentration of 10^6 spores per ml. The fifth wound was used as negative non-inoculated control. Experiment was performed in 4-fold.
Assessment of the infection area was performed 3 days after inoculation. Experiment was performed in 4-fold.
Imidacloprid was formulated as described in Table 2. Assessment of the efficacy was 5 days after inoculation. Experiment was performed in 4-fold.

[1] = natamycin-insecticide 0-0.05 ppm, Table 5
[2] = natamycin-insecticide 0-0.1 ppm, Table 5
[3] = natamycin-insecticide 0-0.2 ppm, Table 5
[4] = natamycin-insecticide 0-0.5 ppm, Table 5
[5] = natamycin-insecticide 0-0.15 ppm, 23 h after inoculation, Table 4
[6] = natamycin-insecticide 0-0.6 ppm, 23 h after inoculation, Table 4
[7] = natamycin-insecticide 0-3 ppm, 23 h after inoculation, Table 4
[8] = natamycin-insecticide 0-15 ppm, 23 h after inoculation, Table 4
[9] = natamycin-insecticide 0-0.05 ppm, 6 days after inoculation, Table 6
[10] = natamycin-insecticide 0-0.1 ppm, 6 days after inoculation, Table 6
[11] = natamycin-insecticide 0-0.2 ppm, 6 days after inoculation, Table 6
[12] = natamycin-insecticide 0-0.5 ppm, 6 days after inoculation, Table 6
[13] = natamycin-insecticide 0-0.1 ppm, Table 10
[14] = natamycin-insecticide 0-0.2 ppm, Table 10
[15] = natamycin-insecticide 0-0.5 ppm, Table 10
[16] = natamycin-insecticide 0-1 ppm, Table 10
[17] = natamycin-insecticide 0-0.15 ppm, 30 h after inoculation, Table 3
[18] = natamycin-insecticide 0-0.6 ppm, 30 h after inoculation, Table 3
[19] = natamycin-insecticide 0-3 ppm, 30 h after inoculation, Table 3
[20] = natamycin-insecticide 0-15 ppm, 30 h after inoculation, Table 3
[21] = natamycin-insecticide 0:0.004 ppm, Table 12B
[22] = natamycin-insecticide 0:0.01 ppm, Table 12A
[23] = natamycin-insecticide 0:0.04 ppm, Table 12A
[24] = natamycin-insecticide 0:1 ppm, Table 12A
[25] = natamycin-insecticide 0-0.05 ppm, 3 days after inoculation, Table 11
[26] = natamycin-insecticide 0-0.1 ppm, 3 days after inoculation, Table 11
[27] = natamycin-insecticide 0-0.2 ppm, 3 days after inoculation, Table 11
[28] = natamycin-insecticide 0-0.5 ppm, 3 days after inoculation, Table 11

CCOC(=O)/C=C(C)/C=C/CC(C)CCCC(C)C (centres unmarked) [hydroprene]
Avg infected area (Fusarium graminerum; [1]): 1124 mm2 | Observed antifungal activity (Fusarium graminerum; [1]): 1.0% | Avg infected area (Fusarium graminerum; [2]): 1142.1 mm2 | Observed antifungal activity (Fusarium graminerum; [2]): −0.6% | Avg infected area (Fusarium graminerum; [3]): 970.5 mm2 | Observed antifungal activity (Fusarium graminerum; [3]): 14.5% | Avg infected area (Fusarium graminerum; [4]): 1055.1 mm2 | Observed antifungal activity (Fusarium graminerum; [4]): 7.1% | Avg infected area (Sclerotinia sclerotiorum; [5]): 99.3 mm2 | Observed antifungal activity (Sclerotinia sclerotiorum; [5]): 36.6% | Avg infected area (Sclerotinia sclerotiorum; [6]): 103.1 mm2 | Observed antifungal activity (Sclerotinia sclerotiorum; [6]): 34.2% | Avg infected area (Sclerotinia sclerotiorum; [7]): 74.5 mm2 | Observed antifungal activity (Sclerotinia sclerotiorum; [7]): 52.5% | Avg infected area (Sclerotinia sclerotiorum; [8]): 89 mm2 | Observed antifungal activity (Sclerotinia sclerotiorum; [8]): 43.2% | Avg infected area (Fusarium culmorum; [9]): 934.7 mm2 | Observed antifungal activity (Fusarium culmorum; [9]): 6.4% | Avg infected area (Fusarium culmorum; [10]): 1010.5 mm2 | Observed antifungal activity (Fusarium culmorum; [10]): −1.2% | Avg infected area (Fusarium culmorum; [11]): 1014.3 mm2 | Observed antifungal activity (Fusarium culmorum; [11]): −1.6% | Avg infected area (Fusarium culmorum; [12]): 1060.2 mm2 | Observed antifungal activity (Fusarium culmorum; [12]): −6.2%

CC1(C)[C@H](/C=C(\Cl)C(F)(F)F)[C@@H]1C(=O)O[C@@H](C#N)c1cccc(Oc2ccccc2)c1 [lambda-cyhalothrin, [(R)-cyano-(3-phenoxyphenyl)methyl] (1S,3S)-3-[(Z)-2-chloro-3,3,3-trifluoroprop-1-enyl]-2,2-dimethylcyclopropane-1-carboxylate]
Avg infected area (Fusarium graminerum; [13]): 4846.2 mm2 | Observed antifungal activity (Fusarium graminerum; [13]): −34.1% | Avg infected area (Fusarium graminerum; [14]): 5071.1 mm2 | Observed antifungal activity (Fusarium graminerum; [14]): −40.3% | Avg infected area (Fusarium graminerum; [15]): 4842.3 mm2 | Observed antifungal activity (Fusarium graminerum; [15]): −34% | Avg infected area (Fusarium graminerum; [16]): 4714.2 mm2 | Observed antifungal activity (Fusarium graminerum; [16]): −30.4% | Avg infected area (Sclerotinia sclerotiorum; [17]): 314.73 mm^2 | Observed antifungal activity (Sclerotinia sclerotiorum; [17]): −0.1% | Avg infected area (Sclerotinia sclerotiorum; [18]): 325.88 mm^2 | Observed antifungal activity (Sclerotinia sclerotiorum; [18]): −3.7% | Avg infected area (Sclerotinia sclerotiorum; [19]): 350.24 mm^2 | Observed antifungal activity (Sclerotinia sclerotiorum; [19]): −11.4% | Avg infected area (Sclerotinia sclerotiorum; [20]): 322.41 mm^2 | Observed antifungal activity (Sclerotinia sclerotiorum; [20]): −2.5% | Avg infected area (Botrytis cinerea; [21]): 82.4 mm2 | Observed antifungal activity (Botrytis cinerea; [21]): 16.6% | Avg infected area (Botrytis cinerea; [22]): 38.9 mm2 | Observed antifungal activity (Botrytis cinerea; [22]): 39.0% | Avg infected area (Botrytis cinerea; [23]): 55.1 mm2 | Observed antifungal activity (Botrytis cinerea; [23]): 13.7% | Avg infected area (Botrytis cinerea; [24]): 41.8 mm2 | Observed antifungal activity (Botrytis cinerea; [24]): 34.6% | Avg infected area (Fusarium culmorum; [25]): 384.0 mm2 | Observed antifungal activity (Fusarium culmorum; [25]): −5.9% | Avg infected area (Fusarium culmorum; [26]): 383.9 mm2 | Observed antifungal activity (Fusarium culmorum; [26]): −5.8% | Avg infected area (Fusarium culmorum; [27]): 370.9 mm2 | Observed antifungal activity (Fusarium culmorum; [27]): −2.2% | Avg infected area (Fusarium culmorum; [28]): 381.7 mm2 | Observed antifungal activity (Fusarium culmorum; [28]): −5.2%
